{"source": "patent US11357858B2", "about": "“Pharmaceutical compositions for the treatment of postoperative pain” (FIDIA FARMACEUTICI S.P.A., priority 2018, dated 2022)", "origin": "cited, not measured here", "settings": "in vivo", "note": "Counter-ions that a name gives are not always drawn."}
{"smiles": "CCCN1CCCC[C@H]1C(=O)Nc1c(C)cccc1C", "note": "[ropivacaine HCl]", "values": [{"measurement": "maximum dose which can be administered without the onset of side effects", "value": "about 2.5 mg/kg"}]}
